Assay results as given in US7402595B2, “JNK inhibitor” (Takeda Pharmaceutical Company Limited, priority 2002, dated 2008).

Tests used:
human JNK1 = molecular target: T1, human JNK1 (Homo sapiens, UniProt P45983); experiment: Measurement of JNK inhibitory activity (32P uptake into cJUN by active JNK1); type: biochemical; conditions: 2.5 μM ATP, 30° C., 60 min
T1 construct: His6 (Met-Ala-His6, read from primer JNK1-U) (N); made in house; host or cells: Sf-21 insect cells (baculovirus BAC-HJNK1 co-infected with BAC-caMKK7); cJUN substrate from E. coli JM109
T1 sequence (P45983 1-384 isoform P45983-2): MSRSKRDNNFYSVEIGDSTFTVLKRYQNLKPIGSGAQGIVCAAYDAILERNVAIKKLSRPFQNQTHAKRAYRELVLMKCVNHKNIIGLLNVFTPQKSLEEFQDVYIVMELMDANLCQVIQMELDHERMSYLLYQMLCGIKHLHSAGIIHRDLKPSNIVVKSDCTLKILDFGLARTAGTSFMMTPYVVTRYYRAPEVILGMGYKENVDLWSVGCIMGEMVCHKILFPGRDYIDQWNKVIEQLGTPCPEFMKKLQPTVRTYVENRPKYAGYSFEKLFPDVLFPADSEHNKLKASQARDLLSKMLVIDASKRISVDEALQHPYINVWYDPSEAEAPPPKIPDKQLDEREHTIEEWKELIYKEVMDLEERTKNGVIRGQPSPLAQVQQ
Experimental: (4) Preparation of Active JNK1
Sf-21 cells were seeded to achieve 1×10^6 cells/ml in 100 ml of Sf-900 II SFM medium (GIBCO BRL) containing 10% fetal calf serum and cultured at 27° C. for 24 hrs. The recombinant baculovirus virus stock BAC-HJNK1 and BAC-caMKK7 were added by 0.2 ml each, and the cells were further cultured for 60 hrs. The cells were separated from the culture solution by centrifugation (3000 rpm, 10 min.) and washed twice with PBS. The cells were suspended in 10 ml of Lysis buffer (25 mM HEPES (pH 7.5), 1% Triton X, 130 mM NaCl, 1 mM EDTA, 1 mM DTT, 25 mM β-glycerophosphate, 20 μM leupeptin, 1 mM APMSF, 1 mM sodium orthovanadate) and ruptured by 4 times of treatment with a homogenizer (POLYTRON) at 20000 rpm, 30 seconds each. Active JNK1 was purified from a supernatant obtained by centrifugal separation (40000 rpm, 45 min.) by the use of Anti-FLAG M2 Affinity Gel (Sigma).
(5) Preparation of Recombinant cJUN
Escherichia coli JM109 (Toyobo Co., Ltd.) was transformed with a plasmid pGEJUN to give ampicillin resistant pGEJUN/JM109. The pGEJUN/JM109 strain was cultured overnight in 150 ml of LB medium (10 g/l tripton, 5 g/l yeast extract, 10 g/l sodium chloride) containing 50 μg/ml ampicillin at 200 rpm, 37° C. The culture solution (15 ml) was added to a fresh LB medium (150 ml) and cultured at 37° C. for 2 hrs. at 200 rpm. 1 mM IPTG (Wako Pure Chemical Industries, Ltd.) was added and the cells were further cultured for 6 hrs. The culture solution was centrifuged at 8000 rpm for 10 min. and bacterial cells were recovered, washed with PBS and frozen at −80° C. The cells were suspended in 20 ml of lysis buffer (B-PER bacterial protein extraction reagent (Pierce), Protease inhibitor Complete (Boehringer)) and shaken at room temperature for 10 min. After centrifugal separation (14000 rpm, 15 min., 4° C.), and GST-cJUN fused protein was purified from the supernatant using Redipack GST Purification Module (Amersham-Pharmacia Biotech).
(6) Measurement of JNK Inhibitory Activity
A reaction solution (37.5 μl, 25 mM HEPES (pH 7.5), 10 mM magnesium acetate, 1 mM DTT) containing 50 ng of active JNK1 and 1 μg of cJUN […]. The test compound (2.5 μl) was added and the mixture was incubated at 30° C. for 5 min. […] After reacting at 30° C. for 60 min., 50 μl of 20% TCA solution was added to stop the reaction. The reaction solution was left standing at 0° C. for 20 min. and an acid-insoluble fraction was transferred onto a GF/C filter (Packard Japan) using Cell Harvester (Packard Japan), and washed with 250 mM phosphoric acid. After drying at 45° C. for 60 min., 40 μl of Microscint 0 (Packard Japan) was added and the radioactivity was measured on TopCount (Packard Japan).

p38α = p38α (Homo sapiens, UniProt Q16539); experiment: Inhibitory action on p38α; type: biochemical
Sequence of p38α (Q16539 whole entry): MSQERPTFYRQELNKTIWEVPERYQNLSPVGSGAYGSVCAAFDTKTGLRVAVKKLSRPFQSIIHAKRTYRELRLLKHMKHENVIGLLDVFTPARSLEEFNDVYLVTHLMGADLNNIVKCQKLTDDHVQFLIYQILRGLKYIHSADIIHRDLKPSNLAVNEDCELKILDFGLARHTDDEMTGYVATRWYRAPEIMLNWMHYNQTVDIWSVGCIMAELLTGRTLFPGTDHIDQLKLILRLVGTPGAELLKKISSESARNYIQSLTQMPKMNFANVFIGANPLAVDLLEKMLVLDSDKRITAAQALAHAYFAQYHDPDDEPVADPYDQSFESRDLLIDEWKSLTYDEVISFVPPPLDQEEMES

ERK1 = ERK1 (Homo sapiens, UniProt P27361); experiment: Inhibitory action on ERK1; type: biochemical
Sequence of ERK1 (P27361 whole entry): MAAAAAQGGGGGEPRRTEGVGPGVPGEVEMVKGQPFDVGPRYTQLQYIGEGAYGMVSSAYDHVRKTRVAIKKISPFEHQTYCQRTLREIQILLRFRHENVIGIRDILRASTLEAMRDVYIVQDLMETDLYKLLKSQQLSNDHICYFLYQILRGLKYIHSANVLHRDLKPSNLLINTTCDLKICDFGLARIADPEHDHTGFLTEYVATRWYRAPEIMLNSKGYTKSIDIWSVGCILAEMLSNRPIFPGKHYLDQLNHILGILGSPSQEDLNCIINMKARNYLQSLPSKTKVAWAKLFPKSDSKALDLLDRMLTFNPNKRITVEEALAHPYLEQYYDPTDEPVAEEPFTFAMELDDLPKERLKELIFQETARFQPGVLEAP

Male wistar rats = experiment: Pressure overloaded cardiac hypertrophy induced by an abdominal aortic stenosis (rat); type: in vivo; conditions: 10 mg/kg p.o. once a day, day 7 after aortic stenosis
Experimental: Preparation of the Model of Pressure Overloaded Cardiac Hypertrophy Induced by an Abdominal Aortic Stenosis (Rat)
Male wistar rats (body weight 260-300 g, CLEA Japan, Inc) were used. Under xylazine (10 mg/kg, i.p.) and ketamine (50 mg/kg, i.p.) anesthesia, abdominal aorta was exposed by median laparotomy. The left and right renal arteries were detached from the back, a 22G injection needle was put along the artery and it was ligated together with the aorta using a 2-0 silk thread just below the right renal artery. Then, the injection needle was removed to make a stenosis in the abdominal aorta. The abdomen was closed and the rats were housed commonly. For a sham group, the abdomen was closed without ligation (no stenosis) with a silk thread. A compound was suspended in a 0.5% methyl cellulose solution (2 ml/kg) and orally administered at a dose of 10 mg/kg 1 hr. before aortic stenosis and once a day from day 1 (the next day of stricture) to day 7 after operation. Vehicle (0.5% methyl cellulose solution) was administered instead of the compound to the sham group and control group. At day 7 after the preparation of aortic stenosis, the body weight was measured, and the heart was removed and then extracted under pentobarbital (50 mg/kg, i.p.) anesthesia. The right and left artium and right ventricle were excised from the heart and the wet weight of the left ventricle was measured. The left ventricle weight to body weight ratio of each rat was calculated and an increase from the average value of the sham group was calculated. Inhibitory rate of each group to a cardiac hypertrophy was calculated based on the control group as 100%.

Compound	IC50 (human JNK1)	inhibition at 10 µM (p38α)	inhibition at 10 µM (ERK1)	Inhibitory rate (cardiac hypertrophy, control group as 100%) (Male wistar rats)	Left ventricular weight/body weight ratio (mg/g) amount of increase from sham group (Male wistar rats)	Left ventricular weight/body weight ratio (mg/g) value (Male wistar rats)
CCN(CC)NC(=O)c1ccc(Cn2c(C(=O)OC)c(-c3ccccc3)c3cc(Br)ccc3c2=O)cc1 [Example 356, 6-bromo-2-[4-(N′,N′-diethylhydrazinocarbonyl)benzyl]-1-oxo-4-phenyl-1,2-dihydroisoquinoline-3-carboxylic acid methyl ester]	0.0075 µM	0%	0%			
CCCC(=O)c1c(-c2ccccc2)c2cc(Cl)ccc2c(=O)n1Cc1ccc(S(N)(=O)=O)cc1 [Example 455, 4-(6-chloro-3-butyryl-1-oxo-4-phenyl-1H-isoquinolin-2-ylmethyl)benzenesulfonamide]	0.034 µM	0%	0%			
COC(=O)c1c(-c2ccccc2)c2cc(Br)ccc2c(=O)n1Cc1ccc(S(N)(=O)=O)cc1 [Example 93, 6-bromo-1-oxo-4-phenyl-2-(4-sulfamoylbenzyl)-1,2-dihydroisoquinoline-3-carboxylic acid methyl ester]	0.014 µM	20%	0%			
COC(=O)c1c(-c2ccccc2)c2cc(N)ccc2c(=O)n1Cc1ccc2c(c1)OCO2 [Example 156, 6-amino-2-(benzo[1,3]dioxol-5-ylmethyl)-1-oxo-4-phenyl-1,2-dihydroisoquinoline-3-carboxylic acid methyl ester]	0.028 µM	10%	16%			
COC(=O)c1c(-c2ccccc2)c2cc(Br)ccc2c(=O)n1Cc1ccc(C(=O)NCCN2CCCC2)cc1 [Example 141, 6-bromo-1-oxo-4-phenyl-2-[4-(2-(pyrrolidin-1-yl)ethylcarbamoyl)benzyl]-1,2-dihydroisoquinoline-3-carboxylic acid methyl ester]	0.037 µM	10%	4%			
CCC(=O)c1c(-c2ccccc2)c2cc(Br)ccc2c(=O)n1Cc1ccc(-c2nnn[nH]2)cc1 [Example 495, 6-bromo-4-phenyl-3-propionyl-2-[4-(1H-tetrazol-5-yl)benzyl]-2H-isoquinolin-1-one]	0.0067 µM	0%	37%			
CC(=O)c1c(-c2ccccc2)c2cc(Br)ccc2c(=O)n1Cc1ccc(S(N)(=O)=O)cc1 [Example 415, 3-acetyl-6-bromo-4-phenyl-2-(4-sulfamoylbenzyl)-2H-isoquinolin-1-one]	0.039 µM	0%	0%			
COC(=O)c1c(-c2ccccc2)c2cc(Br)ccc2c(=O)n1Cc1ccc(NC(=O)CCC(=O)O)cc1 [Example 122, 6-bromo-2-[4-(3-carboxypropionylamino)benzyl]-1-oxo-4-phenyl-1,2-dihydroisoquinoline-3-carboxylic acid methyl ester]	0.0092 µM	0%	0%			
COC(=O)c1c(-c2ccccc2)c2cc(Br)ccc2c(=O)n1Cc1ccc(C(=O)O)cc1 [Example 102, 6-bromo-2-(4-carboxybenzyl)-1-oxo-4-phenyl-1,2-dihydroisoquinoline-3-carboxylic acid methyl ester]	0.02 µM	0%	0%			
COC(=O)c1c(-c2ccccc2)c2cc(Br)ccc2c(=O)n1CC1CCN(C(C)=O)CC1 [Example 112, 2-(1-acetylpiperidin-4-ylmethyl)-6-bromo-1-oxo-4-phenyl-1,2-dihydroisoquinoline-3-carboxylic acid methyl ester]	3 µM	0%	0.095%			
COC(=O)c1c(-c2ccccc2)c2cc(Br)ccc2c(=O)n1Cc1ccc2c(c1)OCO2 [Example 24, 2-(benzo[1,3]dioxol-5-ylmethyl)-6-bromo-1-oxo-4-phenyl-1,2-dihydroisoquinoline-3-carboxylic acid methyl ester]	0.018 µM	18%	39%			
CCC(=O)c1c(-c2ccccc2)c2cc(Br)ccc2c(=O)n1Cc1ccc(S(C)(=O)=O)cc1 [Example 315, 6-bromo-2-(4-methanesulfonylbenzyl)-4-phenyl-3-propionyl-2H-isoquinolin-1-one]	0.046 µM	0%	1%	rate 44%)	0.29 ± 0.05 (Inhibitory mg/g	2.19 ± 0.05 mg/g
C/C(N)=C/C(=O)c1c(-c2ccccc2)c2cc(Br)ccc2c(=O)n1Cc1ccc(S(C)(=O)=O)cc1 [Example 546, 3-[(2Z)-3-aminobut-2-enoyl]-6-bromo-2-(4-methanesulfonylbenzyl)-4-phenyl-2H-isoquinolin-1-one]	0.032 µM	0%	5%			
CCC(=O)c1c(-c2ccccc2)c2cc(Br)ccc2c(=O)n1Cc1ccc(C(=O)O)cc1 [Example 462, 4-(6-bromo-1-oxo-4-phenyl-3-propionyl-1H-isoquinolin-2-ylmethyl)benzoic acid]	0.0091 µM	0%	13%			
CCC(=O)c1c(-c2ccccc2)c2cc(Cl)ccc2c(=O)n1Cc1ccc(C(=O)O)cc1 [Example 463, 4-(6-chloro-1-oxo-4-phenyl-3-propionyl-1H-isoquinolin-2-ylmethyl)benzoic acid]	0.016 µM	0%	22%			
COC(=O)c1c(-c2ccccc2)c2cc(Br)ccc2c(=O)n1Cc1ccc(S(C)(=O)=O)cc1 [Example 94, 6-bromo-2-(4-methanesulfonylbenzyl)-1-oxo-4-phenyl-1,2-dihydroisoquinoline-3-carboxylic acid methyl ester]		2%	0%	rate 40%)		
